Measurements from patent publication US11547738B2, “Compositions and methods for treating fibrosis” (Cedars-Sinai Medical Center, priority 2014, dated 2023).
Entries after “also recorded” stand apart in the source; their conditions may differ.

Legend:
[1] = test system: mouse IL-4/IL-13-induced M2 polarization; test: in vitro titration assay of IL-4/IL-13-induced M2 polarization; assay type: cell-based; conditions: at 1 μM
Description: Antibodies and flow cytometry: All antibodies used for flow cytometry were purchased from Biolegend, unless indicated. For surface staining, murine cells were stained with the following antibodies: APC-CD45.2 (109814, 1:200), PE/Cy7-CD4 (100528, 1:300), Percp/Cy5.5-CD11b (101228, 1:200), BV421-F4/80 (123137, 1:200), APC/Cy7-CD11C (117324, 1:200), PE-IL-411.a (144803 1:100), AF488-CD206 (141710, 1:100), AF700-MHCII (107622, 1:300), PB-Ly6C (128014, 1:200), PE/Cy7-Ly-6G (127617, 1:300), PE-FcεRIα (134307, 1:200), AF488-ckit (105815, 1:200), APC-eFluor780-CD45.1 (47-0453-82, eBioscience, 1:200) and PE-Siglec-F (562068, BD Biosciences, 1:200). Human cells were stained with PE/Cy7-CD14 (301814,1:100), AF488-CD206 (321114, 1:50) and APC-CD68 (333810, 1:100). […]
Cell preparation and in vitro cultures: Pancreatic leukocytes were isolated using collagenase digestion method described previously for flow cytometry analysis (Xue, J., et al. Aryl hydrocarbon receptor regulates pancreatic IL-22 production and protects mice from acute pancreatitis. Gastroenterology 143, 1670-1680 (2012)). […] Isolated PSCs were ready for use after the second passage. […] On day 6, human macrophages are ready for use (Vijayan, D. Isolation and differentiation of monocytes-macrophages from human blood. Methods Mol. Biol. 844, 183-187 (2012)). […]

E0771 tumors = test: syngeneic E0771 tumor model with radiation therapy; assay type: in vivo, C57BL/6 mice; conditions: for response to radiation therapy (tumor volume): 50 μg in 100 μL PBS daily injection combined with RT 16 Gy, versus RT alone, FIG. 8A
Procedure: Syngeneic E0771 tumors were implanted in the lower mammary gland of C57BL/6 mice and allowed to grow to approximately […]. Mice were then enrolled on study (n=5/group) and treated with either PBS (Control), IL4/13 blocking peptide CSRM53567 (50 μg in 100 μL PBS, daily injection), radiation therapy (RT) alone (16 Gy) or combination of CSRM53567 peptide and RT. Mice were measured at the indicated time points with digital calipers and the resulting volume was calculated. ** p<0.01. […] There were fewer CD4+ T cells and more CD8+ T cells as a percentage of the CD45+ leukocytes in the tumors that received radiation therapy and the IL4/13 blocking peptide compared to radiation alone. […] The cytokines and CD45+ cells were all harvested at end point which is about two weeks post-RT.

[2] = test system: caerulein-induced CP mice; test: caerulein-induced chronic pancreatitis (CP) mouse model; assay type: in vivo; conditions: for pancreas fibrosis (relative pancreas weight, H&E, Trichrome, α-SMA, Collagen1A1) / alternative activation of pancreatic macrophages (CD206 expression, flow cytometry): established CP; for pancreas fibrosis (relative pancreas weight, H&E, Trichrome, α-SMA, Collagen1A1): FIG. 6A-6E; for alternative activation of pancreatic macrophages (CD206 expression, flow cytometry): FIG. 6F
Description: As indicated herein, agents that inhibit IL-4/IL-13 receptor function such as CRSM53567 will have benefit in several fibrosis and cancer diseases. In this design a commonly used model to cause chronic pancreatitis in rodents was created. In this model, the animal is given the cholecystokinin analogue, Caerulein, as a set of 6 intraperitoneal injections over a day repeated 3 times a week for 4 weeks. […] CD206 is a marker of the type II macrophage while MHCII is highly expressed on type I macrophage.
Pancreatitis model and treatment: AP was induced with caerulein injection in mice as previously described (Xue, J., et al. Aryl hydrocarbon receptor regulates pancreatic IL-22 production and protects mice from acute pancreatitis. Gastroenterology 143, 1670-1680 (2012); Xue, J. & Habtezion, A. Carbon monoxide-based therapy ameliorates acute pancreatitis via TLR4 inhibition. J. Clin. Invest. 124, 437-447 (2014)). CP was induced by repetitive caerulein injections (Lerch, M. M. & Gorelick, F. S. Models of acute and chronic pancreatitis. Gastroenterology 144, 1180-1193 (2013); Treiber, M. et al. Myeloid, but not pancreatic, RelA/p65 is required for fibrosis in a mouse model of chronic pancreatitis. Gastroenterology 141, e1471-e1477 (2011)). In brief, mice were given six hourly intraperitoneal (i.p.) injections of 50-μg kg^−1 body weight caerulein (Sigma-Aldrich) 3 days per week, for a total of 4 weeks. Mice were then killed and analyzed 3 days after the last caerulein injection. For blocking peptide study all mice were given caerulein injection 3 days per week for a total of 4 weeks as above, and 2 weeks following start of the caerulein injection mice were either given vehicle control (PBS) or IL-4/IL-13-blocking peptide ([…], 100 μl daily for 5 days per week×2 weeks) until being killed 4 weeks and 3 days later as above.
Histology and immunofluorescence: Mice were killed by CO2 inhalation, and then their pancreata were rapidly removed. Pancreas pieces were immediately fixed in 10% formalin or frozen in Tissue-Tek OCT compound. Fixed tissues were sectioned and used for haemotoxylin and eosin and Trichrome staining (performed in the Histo-Tec Laboratory). Frozen tissues were also sectioned for immunofluorescence staining with indicated antibodies and analyzed with confocal microscopy.
Antibodies and flow cytometry: All antibodies used for flow cytometry were purchased from Biolegend, unless indicated. For surface staining, murine cells were stained with the following antibodies: APC-CD45.2 (109814, 1:200), PE/Cy7-CD4 (100528, 1:300), Percp/Cy5.5-CD11b (101228, 1:200), BV421-F4/80 (123137, 1:200), APC/Cy7-CD11C (117324, 1:200), PE-IL-411.a (144803 1:100), AF488-CD206 (141710, 1:100), AF700-MHCII (107622, 1:300), PB-Ly6C (128014, 1:200), PE/Cy7-Ly-6G (127617, 1:300), PE-FcεRIα (134307, 1:200), AF488-ckit (105815, 1:200), APC-eFluor780-CD45.1 (47-0453-82, eBioscience, 1:200) and PE-Siglec-F (562068, BD Biosciences, 1:200). Human cells were stained with PE/Cy7-CD14 (301814,1:100), AF488-CD206 (321114, 1:50) and APC-CD68 (333810, 1:100). For intracellular cytokine staining, cells were activated with phorbol myristate acetate (50 ng ml^−1) and ionomycin (1 μg ml^−1), in the presence of brefeldin A (10 μg ml^−1, eBioscience) for 4h at 37° C. before staining. The cells were then fixed and permeabilized using the eBioscience kit following the manufacturer's guidelines. APC-IL10 (554468, 1:100) and isotype control (556924, 1:100) from BD Biosciences were used for intracellular staining. For intracellular TNFα staining, cells were incubated with or without lipopolysaccharide (100 ngml-1, InvivoGen) in the presence of brefeldin A before surface-staining. PE-TNFα (554419, 1:200) and isotype control (554685, 1:200) from BD Biosciences were used.
Quantitative RT-PCR: Th pancreas or cells were lysed with Trizol reagent (Invitrogen) for total RNA preparation according to the manufacturer's instructions. […]

human macrophages = test: M2 polarization of human macrophages by hPSC conditioned medium; assay type: cell-based; conditions: hPSC_CM pretreated with 1 μM, 24 h; FIG. 6G
Procedure: IL-4/IL-13-blocking peptide (IL4/13BP i.p., 50 μg per mouse, 5 days per week) was administrated to mice 2 weeks after starting CP induction and mice were killed as previous after 4 weeks of caerulein injections. […] (unpaired two-tailed Student's t-test). […] Scale bar, 200 μm. […] Scale bar: 50 μm. FIG. 6D and FIG. 6E show RT-PCR analysis of α-SMA and Col1α1 (Collagen1A1) gene expression in the pancreas of indicated mice. Means±s.e.m. (unpaired two-tailed Student's t-test). […] Means±s.e.m. (unpaired two-tailed Student's t-test). In FIG. 6G human macrophages as above were cultured with control medium (Con), conditioned medium from hPSCs (hPSC_CM) or hPSC_CM pretreated with 1 μM IL4/13BP (hPSC_CM+BP) for 24h. Expression of CD206 (% CD206^+ macrophages) was analysed using flow cytometry.
Antibodies and flow cytometry: All antibodies used for flow cytometry were purchased from Biolegend, unless indicated. […]
Cell preparation and in vitro cultures: Pancreatic leukocytes were isolated using collagenase digestion method described previously for flow cytometry analysis (Xue, J., et al. Aryl hydrocarbon receptor regulates pancreatic IL-22 production and protects mice from acute pancreatitis. Gastroenterology 143, 1670-1680 (2012)). […] Isolated PSCs were ready for use after the second passage. […]

[3] = RT plus peptide compared to radiation alone, about two weeks post-RT
[4] = chronic pancreatitis mouse model, preliminary results, FIG. 1
[5] = i.p. 50 μg per mouse, 5 days per week, started 2 weeks after starting CP induction
[6] = i.p. 50 μg per mouse, 5 days per week, started 2 weeks after starting CP induction, listed as IL-4/13-blocking peptide

Substance: TYR-CYS-ASP-ASP-PHE-VAL-GLY-SER-PHE-ASP-CYS-TYR (YCDDFVGSFDCY) [CSRM53567]
- mouse IL-4/IL-13-induced M2 polarization and CD206 expression [1]: significantly decreased
- response to radiation therapy (tumor volume) (E0771 tumors): enhances response to radiation therapy
- response to radiation therapy (tumor volume) (E0771 tumors; listed as IL-4/IL-13 blocking peptide): enhances the response to radiation therapy
- number of CD8+ T cells post radiation therapy (E0771 tumors; FIG. 8B): enhances the number of CD8+ T cells
- CD4+ T cells as a percentage of the CD45+ leukocytes in the tumors (E0771 tumors; [3]): fewer
- CD8+ T cells as a percentage of the CD45+ leukocytes in the tumors (E0771 tumors; [3]): more
- absolute number of CD45+ leukocytes (E0771 tumors; [3]): remained roughly the same
- macrophages in the tissue (FACS) ([2]; chronic pancreatitis mouse model, caerulein 3 times a week for 4 weeks, preliminary results, FIG. 1B): decreases; also recorded: reduces
- fibrosis [2, 4]: decreased fibrosis; also recorded: reduces
- tissue volume / pancreas shrinkage [2, 4]: increase; also recorded: preventing pancreas shrinkage
- pancreas fibrosis (relative pancreas weight, H&E, Trichrome, α-SMA, Collagen1A1) [2, 5]: limited pancreas fibrosis
- pancreas fibrosis (relative pancreas weight, H&E, Trichrome, α-SMA, Collagen1A1) [2, 6]: ameliorated
- alternative activation of pancreatic macrophages (CD206 expression, flow cytometry) [2, 5]: blockade of alternative activation
- alternative activation of pancreatic macrophages (CD206 expression, flow cytometry) [2, 6]: decreased
- established CP ([2]; i.p. 50 μg per mouse, 5 days per week, started 2 weeks after starting CP induction, FIG. 6): ameliorates established CP
- hPSC-mediated M2 polarization of human macrophages (% CD206+ macrophages) (human macrophages): capable of inhibiting
